For the experiment, the system named is M. tuberculosis H37Rv growth inhibition with meropenem. Description: dose response, H37Rv, with and without meropenem (AID 434987).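 Further: growth over 7 days at 37 °C before Alamar Blue read on day 9.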
Setting [1] is: M. tuberculosis H37Rv growth inhibition, measured here: IC50 without meropenem.
[2] abbreviates: M. tuberculosis H37Rv growth inhibition, measured here: IC90 without meropenem.
Where [3] appears, read: measured here: IC90 with meropenem.

pIC50: −log10 of the molar value. Active and inactive are the calls of the source. How the calls were made is not given here.

As to `COc1ccccc1C(c1c(N)n(C)c(=O)n(C)c1=O)C(C)[N+](=O)[O-]` (stereo unspecified), the IC50 (usually the point on the concentration scale where inhibition reaches its midpoint) is 11.2 µM (inactive). Also, under setting [1], the pIC50 (commonly the negative decadic logarithm of the IC50, by convention in mol/L) was 4.67. The IC90 – broadly, the point of the concentration-response curve where the effect stands at 90% – under setting [2] came out at 28.9 µM. Also, the IC90 under setting [3] is 18 µM.

`Cc1ccc(NC(=S)Nc2ncccc2C)c(C)c1`: the IC50 was 46.2 µM (inactive). This compound also gave a negative-log IC50 (pIC50) under setting [1] of 4.01. Under setting [2], the concentration for an effect of 90% (IC90) is greater than 100 µM. The compound further had an IC90 under setting [3] greater than 100 µM.

In the case of `O=C(CSCC(=O)Nc1ccccc1)N/N=C/c1c(O)ccc2ccccc12`, the pIC50 is 4.50. For the same compound, under setting [1], the pIC50 is less than 4.00. Moreover, the IC90 under setting [2] was greater than 100 µM. In addition, the concentration for an effect of 90% (IC90) under setting [3] is greater than 100 µM.

On to `Nc1ccc(N=Nc2ccccc2O)c(N)c1`, for which the negative logarithm of the IC50 (pIC50) was 5.18. The compound also had a pIC50 under setting [1] of 4.47. Besides, under setting [2], the 90% effect concentration (IC90) is greater than 100 µM. Also, the IC90 under setting [3] was found to be 34 µM.

In the case of `CCCC1=C/C(=C/c2ccc(-c3ccccc3OC)o2)C(=O)O1`, the IC50 is 29.3 µM (inactive). Besides, the pIC50 under setting [1] is 4.26. Under setting [2], this compound registered an IC90 greater than 100 µM. Under setting [3], the IC90 is greater than 100 µM.

For the compound `O=C(CSc1nc2ncc(Cl)cc2[nH]1)Nc1cccc(F)c1`, the IC50 is > 100 µM (inactive). This compound had a pIC50 under setting [1] of less than 4.00. The IC90 under setting [2] is greater than 100 µM. This compound registered an IC90 under setting [3] greater than 100 µM.

`NC(=O)C1CCCN(C(=O)c2ccc(NC(=O)c3cccs3)cc2)C1` (stereo unspecified): the IC50 was > 100 µM (inactive). This compound also had a pIC50 under setting [1] of less than 4.00. The IC90 under setting [2] was greater than 100 µM. The same compound gave an IC90 under setting [3] greater than 100 µM.

With `CSc1cccc(NC(=O)c2ccc(Cl)nc2)c1`, the IC50 is > 100 µM (inactive). Under setting [1], this compound had a negative-log IC50 (pIC50) of less than 4.00. The compound also displayed an IC90 under setting [2] greater than 100 µM. Also, the 90% effect concentration (IC90) under setting [3] was greater than 100 µM.

`CCOC(=O)c1cnn(-c2ncnc3sc4c(c23)CCC4)c1N`: the pIC50 was 4.63. The pIC50 under setting [1] is less than 4.00. In addition, the IC90 under setting [2] is greater than 100 µM. In addition, under setting [3], the 90% effect concentration (IC90) is greater than 50 µM.

Take `O=C(Cn1c(=O)n(CCCC(=O)NC2CCCC2)c(=O)c2ccccc21)NCCC1=CCCCC1`: the IC50 is > 100 µM (inactive). Also, under setting [1], the pIC50 was less than 4.00. Under setting [2], this compound registered an IC90 greater than 100 µM. The compound also gave an IC90 under setting [3] greater than 100 µM.

Regarding `CC1(c2ccc([N+](=O)[O-])cc2)NC(=O)N(CC(=O)c2ccc3c(c2)OCO3)C1=O` (stereo unspecified), the IC50 is > 100 µM (inactive). In addition, the pIC50 under setting [1] is less than 4.00. Also, the IC90 under setting [2] was greater than 100 µM. The compound further gave an IC90 under setting [3] greater than 100 µM.

Turning to `CC(=O)[C@@]1(O)CC[C@H]2[C@@H]3C[C@H](C)C4=CC(=O)CC[C@]4(C)[C@H]3CC[C@@]21C`, the IC50 is > 100 µM (inactive). Under setting [1], this compound had a negative-log IC50 (pIC50) of less than 4.00. The compound further returned an IC90 under setting [2] greater than 100 µM. The same compound showed an IC90 under setting [3] greater than 100 µM.

For `CC(C(=O)Nc1sc2c(c1C(=O)NCc1ccco1)CCCC2)N1C(=O)c2ccccc2C1=O` (stereo unspecified), the IC50 is 46.1 µM (inactive). Further, the pIC50 under setting [1] was less than 4.00. Also, the IC90 under setting [2] was greater than 100 µM. In addition, the 90% effect concentration (IC90) under setting [3] is greater than 100 µM.

Turning to `Nc1n[nH]c(N)c1N=Nc1cccc(F)c1`, the IC50 was > 100 µM (inactive). This compound showed a pIC50 under setting [1] of less than 4.00. The IC90 under setting [2] was greater than 100 µM. The IC90 under setting [3] is greater than 100 µM.

As to `COc1ccccc1/C=C/C(=O)NCC(=O)N/N=C/c1cc(Br)ccc1OC`, the negative logarithm of the IC50 (pIC50) was 4.62. The pIC50 under setting [1] was less than 4.00. This compound also gave a concentration for an effect of 90% (IC90) under setting [2] greater than 100 µM. This compound registered a 90% effect concentration (IC90) under setting [3] greater than 100 µM.

Regarding `O=C(C1=C[C@H](c2ccc(Br)cc2)C[C@H](OCc2ccc(CO)cc2)O1)N1CCN(Cc2ccc3c(c2)OCO3)CC1`, the IC50 was 50.4 µM (inactive). Besides, the pIC50 under setting [1] is less than 4.00. In addition, the IC90 under setting [2] was greater than 100 µM. For the same compound, the IC90 under setting [3] is greater than 100 µM.

The compound `Cc1nc(/N=C(\N)NC(=O)c2ccccc2)nc2ccccc12` gave a pIC50 under setting [1] of less than 4.00. The IC90 by setting is: under setting [2], greater than 100 µM; under setting [3], greater than 25 µM.

In the case of `O=C(NC(=S)N1CCOCC1)c1ccc([N+](=O)[O-])cc1`, the IC50 is 20.7 µM (inactive). Besides, under setting [1], the pIC50 is 4.33. Also, the IC90 under setting [2] is greater than 100 µM. The compound also registered an IC90 under setting [3] greater than 100 µM.

As for `COc1cccc(/C=N/NC(=O)CSCC(=O)Nc2ccccc2)c1O`, the pIC50 was 5.27. For the same compound, the pIC50 under setting [1] is less than 4.00. Moreover, the IC90 under setting [2] is greater than 100 µM. For the same compound, the IC90 under setting [3] is greater than 100 µM.

`Cc1nn(CCc2nn[nH]n2)c2nc(-c3ccc(C4CCCCC4)cc3)cc(C(F)(F)F)c12`: the pIC50 is 5.06. Further, under setting [1], the pIC50 was 4.60. Moreover, the IC90 under setting [2] is 50 µM. This compound gave a concentration for an effect of 90% (IC90) under setting [3] greater than 100 µM.

Turning to `CCCC(C(=O)N1CCOCC1)N1C(=O)C2C3C=CC(C3)C2C1=O` (stereo unspecified), the IC50 is > 100 µM (inactive). In addition, under setting [1], the negative logarithm of the IC50 (pIC50) is less than 4.00. The IC90 under setting [2] was greater than 100 µM. In addition, under setting [3], the IC90 is greater than 100 µM.

On to `CC(=O)NC(c1cc(Cl)c2cccnc2c1O)C1CC1` (stereo unspecified), for which the pIC50 is 4.64. Under setting [1], this compound showed a pIC50 of 4.13. The IC90 under setting [2] was greater than 100 µM. The compound further showed an IC90 under setting [3] greater than 100 µM.

Consider `COc1cc(C(F)(F)F)nc2ccc(C#CCOC(=O)Nc3ccccc3)cc12`, for which the IC50 was > 100 µM (inactive). Besides, the pIC50 under setting [1] is less than 4.00. Moreover, the IC90 under setting [2] is greater than 100 µM. Besides, the IC90 under setting [3] was greater than 100 µM.

Values taken from PubChem BioAssay AID434987 (Southern Research Specialized Biocontainment Screening …, 2010).
